{
  "source": "patent US8440594B2",
  "about": "“Pyridothiazines having herbicidal action” (BASF SE, priority 2010, dated 2013)",
  "assay_in_all_cases": "Greenhouse herbicidal activity, post-emergence treatment",
  "format_in_all_cases": "in vivo",
  "key": {"[1]": {"system": "Echinochloa crus-galli (ECHCG)", "details": "scale 0 to 100", "description": "(§1) The seeds of the test plants were sown separately for each species. For the post-emergence treatment, the test plants were first grown to a height of 3 to 15 cm, depending on the plant habit, and only then treated with the active ingredients which had been suspended or emulsified in water. For this purpose, the test plants were either sown directly and grown in the same containers, or they were first grown separately as seedlings and transplanted into the test containers a few days prior to treatment. Depending on the species, the plants were kept at 10-25° C. or 20-35° C. The test period extended over 2 to 4 weeks. During this time, the plants were tended, and their response to the individual treatments was evaluated. Evaluation was carried out using a scale from 0 to 100. 100 means no emergence of the plants, or complete destruction of at least the aerial moieties, and 0 means no damage, or normal course of growth. A good herbicidal activity is given at values of at least 70 and a very good herbicidal activity is given at values of at least 85. The plants used in the greenhouse experiments belonged to the following species: [table]"}, "[2]": {"system": "Alopecurus myosuroides (ALOMY)", "details": "scale 0 to 100", "description": "as §1"}, "Galium aparine (GALAP)": {"system": "Galium aparine (GALAP)", "details": "scale 0 to 100", "description": "as §1"}, "[3]": {"system": "Amaranthus retroflexus (AMARE)", "details": "scale 0 to 100", "description": "as §1"}, "[4]": {"system": "Chenopodium album (CHEAL)", "details": "for herbicidal activity against CHEAL: scale 0 to 100; for pest or weed control at 500 g/ha: application rate 0.5 kg/ha", "description": "as §1"}, "Setaria faberi (SETFA)": {"system": "Setaria faberi (SETFA)", "details": "application rate 0.5 kg/ha, scale 0 to 100", "description": "as §1"}, "Stellaria media (STEME)": {"system": "Stellaria media (STEME)", "details": "scale 0 to 100", "description": "as §1"}, "[5]": {"system": "Abutilon theophrasti (ABUTH)", "details": "application rate 0.25 kg/ha, scale 0 to 100", "description": "as §1"}, "[6]": {"details": "Chenopodium album, scale 0 to 100, read-out: herbicidal activity against CHEAL"}, "[7]": {"details": "Chenopodium album, application rate 0.25 kg/ha, scale 0 to 100, read-out: herbicidal activity against CHEAL"}},
  "data": [
    {"smiles": "O=S1(=O)C(c2cc(F)ccc2C(F)(F)F)=C(O)c2ncccc2N1CC(F)F", "note": "[Compound I-3]", "values": [
      {"measurement": "herbicidal activity against ECHCG", "setting": "[1]; application rate 0.5 kg/ha", "value": "very good herbicidal activity (a very good herbicidal activity is given at values of at least 85)"}
    ]},
    {"smiles": "O=S1(=O)C(c2ccccc2Cl)=C(O)c2ncccc2N1CC(F)F", "note": "[Compound I-5]", "values": [
      {"measurement": "herbicidal activity against ECHCG", "setting": "[1]; application rate 0.5 kg/ha", "value": "good herbicidal activity (A good herbicidal activity is given at values of at least 70)"}
    ]},
    {"smiles": "O=S1(=O)C(c2cc(Cl)ccc2Cl)=C(O)c2ncccc2N1CC(F)F", "note": "[Compound I-7]", "values": [
      {"measurement": "herbicidal activity against ALOMY", "setting": "[2]; application rate 0.5 kg/ha", "value": "very good herbicidal activity (a very good herbicidal activity is given at values of at least 85)"},
      {"measurement": "herbicidal activity against GALAP", "setting": "Galium aparine (GALAP); application rate 0.5 kg/ha", "value": "good herbicidal activity (A good herbicidal activity is given at values of at least 70)"}
    ]},
    {"smiles": "CC1=NOC(c2c(S(C)(=O)=O)ccc(C3=C(O)c4ncccc4N(CC(F)F)S3(=O)=O)c2C)C1", "note": "(stereo not shown) [Compound I-8]", "values": [
      {"measurement": "herbicidal activity against AMARE", "setting": "[3]; application rate 0.447 kg/ha", "value": "very good herbicidal activity (a very good herbicidal activity is given at values of at least 85)"},
      {"measurement": "herbicidal activity against CHEAL", "setting": "[4]; application rate 0.447 kg/ha", "value": "very good herbicidal activity (a very good herbicidal activity is given at values of at least 85)"}
    ]},
    {"smiles": "Cc1c(C2=C(O)c3ncccc3N(CC(F)F)S2(=O)=O)ccc2c1S(=O)(=O)CCC2(C)C", "note": "[Compound I-10]", "values": [
      {"measurement": "herbicidal activity against AMARE", "setting": "[3]; application rate 0.041 kg/ha", "value": "very good herbicidal activity (a very good herbicidal activity is given at values of at least 85)"},
      {"measurement": "herbicidal activity against CHEAL", "setting": "[4]; application rate 0.041 kg/ha", "value": "very good herbicidal activity (a very good herbicidal activity is given at values of at least 85)"}
    ]},
    {"smiles": "CON=C1CCS(=O)(=O)c2c1ccc(C1=C(O)c3ncccc3N(CC(F)F)S1(=O)=O)c2C", "note": "[Compound I-22]", "values": [
      {"measurement": "herbicidal activity against SETFA", "setting": "Setaria faberi (SETFA)", "value": "good herbicidal activity (A good herbicidal activity is given at values of at least 70)"}
    ]},
    {"smiles": "CCOc1c(S(=O)(=O)CC)ccc(C2=C(O)c3ncccc3N(CC(C)C)S2(=O)=O)c1Cl", "note": "[Compound I-29]", "values": [
      {"measurement": "herbicidal activity against AMARE", "setting": "[3]; application rate 0.154 kg/ha", "value": "very good herbicidal activity (a very good herbicidal activity is given at values of at least 85)"}
    ]},
    {"smiles": "CCCCN1c2cccnc2C(O)=C(c2ccc(S(C)(=O)=O)c(OC)c2C)S1(=O)=O", "note": "[Compound I-32]", "values": [
      {"measurement": "pest or weed control at 400 g/ha", "setting": "[4]; Chenopodium album, application rate 0.4 kg/ha, scale 0 to 100, read-out: herbicidal activity against CHEAL", "value": "≥ 85", "unit": "%"}
    ]},
    {"smiles": "COc1c(S(C)(=O)=O)ccc(C2=C(O)c3ncccc3N(CC(C)C)S2(=O)=O)c1C", "note": "[Compound I-33]", "values": [
      {"measurement": "herbicidal activity against ECHCG", "setting": "[1]; application rate 0.345 kg/ha", "value": "very good herbicidal activity (a very good herbicidal activity is given at values of at least 85)"},
      {"measurement": "herbicidal activity against CHEAL", "setting": "[4]; application rate 0.345 kg/ha", "value": "very good herbicidal activity (a very good herbicidal activity is given at values of at least 85)"}
    ]},
    {"smiles": "CCN1c2cccnc2C(O)=C(c2cccc(OC(F)(F)F)c2Cl)S1(=O)=O", "note": "[Compound I-34]", "values": [
      {"measurement": "herbicidal activity against STEME", "setting": "Stellaria media (STEME); application rate 0.233 kg/ha", "value": "very good herbicidal activity (a very good herbicidal activity is given at values of at least 85)"},
      {"measurement": "pest or weed control at 233 g/ha", "setting": "[4]; Chenopodium album, application rate 0.233 kg/ha, scale 0 to 100, read-out: herbicidal activity against CHEAL", "value": "≥ 85", "unit": "%"}
    ]},
    {"smiles": "CN1c2cccnc2C(O)=C(c2ccc(Cl)cc2Cl)S1(=O)=O", "note": "[Compound I-39]", "values": [
      {"measurement": "pest or weed control at 500 g/ha", "setting": "[4]; [6]", "value": "≥ 85", "unit": "%"}
    ]},
    {"smiles": "CCN1c2cccnc2C(O)=C(c2ccc(Cl)cc2Cl)S1(=O)=O", "note": "[Compound I-40]", "values": [
      {"measurement": "pest or weed control at 500 g/ha", "setting": "[4]; [6]", "value": "≥ 85", "unit": "%"}
    ]},
    {"smiles": "CCCN1c2cccnc2C(O)=C(c2ccc(Cl)cc2Cl)S1(=O)=O", "note": "[Compound I-41]", "values": [
      {"measurement": "pest or weed control at 500 g/ha", "setting": "[4]; [6]", "value": "≥ 85", "unit": "%"}
    ]},
    {"smiles": "CCCCN1c2cccnc2C(O)=C(c2ccc(Cl)cc2Cl)S1(=O)=O", "note": "[Compound I-42]", "values": [
      {"measurement": "pest or weed control at 500 g/ha", "setting": "[4]; [6]", "value": "≥ 85", "unit": "%"}
    ]},
    {"smiles": "CN1c2cccnc2C(O)=C(c2ccccc2Cl)S1(=O)=O", "note": "[Compound I-44]", "values": [
      {"measurement": "herbicidal activity against ECHCG", "setting": "[1]; application rate 0.1 kg/ha", "value": "very good herbicidal activity (a very good herbicidal activity is given at values of at least 85)"},
      {"measurement": "pest or weed control at 100 g/ha", "setting": "[4]; Chenopodium album, application rate 0.1 kg/ha, scale 0 to 100, read-out: herbicidal activity against CHEAL", "value": "≥ 85", "unit": "%"}
    ]},
    {"smiles": "CN1c2cccnc2C(O)=C(c2ccccc2C(F)(F)F)S1(=O)=O", "note": "[Compound I-45]", "values": [
      {"measurement": "herbicidal activity against ABUTH", "setting": "[5]", "value": "very good herbicidal activity (a very good herbicidal activity is given at values of at least 85)"}
    ]},
    {"smiles": "CC(C)N1c2cccnc2C(O)=C(c2ccccc2Cl)S1(=O)=O", "note": "[Compound I-51]", "values": [
      {"measurement": "pest or weed control at 500 g/ha", "setting": "[4]; [6]", "value": "≥ 85", "unit": "%"}
    ]},
    {"smiles": "O=S1(=O)C(c2cc(Cl)cc(N3CCOCC3)c2C(F)(F)F)=C(O)c2ncccc2N1CC(F)F", "note": "[Compound I-56, 3-[5-chloro-3-morpholino-2-(trifluoromethyl)phenyl]-1-(2,2-difluoroethyl)-2,2-dioxo-pyrido[3,2-c]thiazin-4-ol]", "values": [
      {"measurement": "herbicidal activity against AMARE", "setting": "[3]; application rate 0.25 kg/ha", "value": "good herbicidal activity (A good herbicidal activity is given at values of at least 70)"}
    ]},
    {"smiles": "CCN1c2cccnc2C(O)=C(c2ccc(Cl)c(C)c2Cl)S1(=O)=O", "note": "[Compound I-59]", "values": [
      {"measurement": "pest or weed control at 154 g/ha", "setting": "[4]; Chenopodium album, application rate 0.154 kg/ha, scale 0 to 100, read-out: herbicidal activity against CHEAL", "value": "≥ 85", "unit": "%"}
    ]},
    {"smiles": "O=S1(=O)C(c2ccc(F)cc2F)=C(O)c2ncccc2N1CC(F)F", "note": "[Compound I-62]", "values": [
      {"measurement": "herbicidal activity against GALAP", "setting": "Galium aparine (GALAP); application rate 0.0625 kg/ha", "value": "good herbicidal activity (A good herbicidal activity is given at values of at least 70)"},
      {"measurement": "herbicidal activity against CHEAL", "setting": "[4]; application rate 0.0625 kg/ha", "value": "very good herbicidal activity (a very good herbicidal activity is given at values of at least 85)"}
    ]},
    {"smiles": "CCN1c2cccnc2C(O)=C(c2ccc(F)cc2F)S1(=O)=O", "note": "[Compound I-63]", "values": [
      {"measurement": "pest or weed control at 250 g/ha", "setting": "[4]; [7]", "value": "≥ 85", "unit": "%"}
    ]},
    {"smiles": "CS(=O)(=O)c1ccc(C2=C(O)c3ncccc3N(CC(F)F)S2(=O)=O)c(Cl)c1C1=NOCC1", "note": "[Compound I-66]", "values": [
      {"measurement": "herbicidal activity against AMARE", "setting": "[3]; application rate 0.075 kg/ha", "value": "very good herbicidal activity (a very good herbicidal activity is given at values of at least 85)"},
      {"measurement": "herbicidal activity against STEME", "setting": "Stellaria media (STEME); application rate 0.075 kg/ha", "value": "very good herbicidal activity (a very good herbicidal activity is given at values of at least 85)"},
      {"measurement": "herbicidal activity against CHEAL", "setting": "[4]; application rate 0.075 kg/ha", "value": "very good herbicidal activity (a very good herbicidal activity is given at values of at least 85)"}
    ]},
    {"smiles": "Cc1c(C2=C(O)c3ncccc3N(CC(F)F)S2(=O)=O)ccc2c1C(=O)C(C)(C)CS2(=O)=O", "note": "[Compound I-71]", "values": [
      {"measurement": "herbicidal activity against CHEAL", "setting": "[4]; application rate 0.25 kg/ha", "value": "good herbicidal activity (A good herbicidal activity is given at values of at least 70)"}
    ]},
    {"smiles": "CCN1c2cccnc2C(O)=C(c2ccc(Br)cc2Cl)S1(=O)=O", "note": "[Compound I-81]", "values": [
      {"measurement": "pest or weed control at 250 g/ha", "setting": "[4]; [7]", "value": "≥ 85", "unit": "%"}
    ]},
    {"smiles": "COC(CN1c2cccnc2C(O)=C(c2ccccc2C(F)(F)F)S1(=O)=O)OC", "note": "[Compound I-82]", "values": [
      {"measurement": "herbicidal activity against ALOMY", "setting": "[2]; application rate 0.25 kg/ha", "value": "very good herbicidal activity (a very good herbicidal activity is given at values of at least 85)"}
    ]}
  ]
}
